Tested on: V. parahaemolyticus
Assay: Micro-broth dilution MIC / MBC
Assay type: cell-based, Vibrio parahaemolyticus (ATCC, 17802)
Conditions: 37 °C
Source text: The microbial strains used in this study were Bacillus subtilis (ATCC, 11774), Candida albicans (TIMM, 1768), Enterococcus faecalis (ATCC, 33186), Escherichia coli (ATCC, 11775), Klebsiella pneumoniae (ATCC, 13883), Methicillin-resistant Staphylococcus aureus (ATCC, BAA-41), Pseudomonas aeruginosa (ATCC, 10145), Salmonella enterica (ATCC, 14028), Serratia marcescens (ATCC, 13880), Staphylococcus aureus (ATCC, 25923) and Vibrio parahaemolyticus (ATCC, 17802). All microbial strains were cultivated overnight at 37 °C and 200 rpm, then subcultured and incubated for 3 h under the same incubation conditions to obtain the mid-logarithmic growth phase. The cultivated cells were washed twice with 10 mM Tris–HCl containing 5 mM D-glucose at pH 7.4 and suspended in the same buffer to be used in different assays, as previously described.
As a conclusive quantitative assessment, broth microtiter assay was used to determine the MIC values of each cryptide against B. subtilis, MRSA, S. enterica, P. aeruginosa, V. parahaemolyticus and C. albicans by following the guidelines of the Clinical and Laboratory Standards Institute (CLSI)[67], with slight modifications. […] MIC was detected as the lowest concentration of each cryptide that prevents the optically detectable microbial growth at OD = 600 nm.

For “RHCLRSKRPPNVCPH [AD4, cationic cryptide from P. vannamei precursor DN34505 (Pl-crustin 2), chemically synthesised]”, the “MBC (µM) V. parahaemolyticus” value (20 µl of wells without growth on agar, 18 h) was > 50 µM and the “MIC (µM) V. parahaemolyticus” value (micro-broth dilution, 3 h peptide treatment then MHB 18 h, OD 600 nm) was > 50 µM.

Reference: PMC10482825 (Scientific Reports, 2023)
